Data from patent publication US10463644B2, “Uses of sesquiterpene lactone compounds and their derivatives in drugs preparation” (ACCENDATECH, priority 2013, dated 2019).
Like-named read-outs stand apart in the source and are kept apart here.

Legend:
[1] = test system: IL-1β secreted by synoviocyte; test: Content of IL-1β in culture supernatant of synoviocyte of RA model rats given test compound; type: in vivo; conditions: rat RA model, dose 30 mg/kg.2d; normal control 0.16 ± 0.034, NaCl 0.49 ± 0.136
How it was run: (§1)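 Rat RA model; dosing 30 mg/kg.2d; normal and NaCl control groups. Synoviocyte culture supernatant collected; TNF-α and PGE2 measured by one established method, IL-1β by a separate method.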

[2] = test system: PGE2 secreted by synoviocyte; test: Content of PGE2 in culture supernatant of synoviocyte of RA model rats given test compound; type: in vivo; conditions: rat RA model, dose 30 mg/kg.2d; normal control 8.34 ± 1.29, NaCl 32.44 ± 10.32
How it was run: as §1

normal cells = test: Survival rate of normal cells after test compound is added (flow cytometry, Annexin V-FITC/PI); type: cell-based; conditions: 18 h
How it was run: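 Survival was determined in clinical specimens after an 18 h compound treatment, using Annexin V-FITC/PI apoptosis staining and flow cytometry.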

cancer stem cells = test: Survival rate of cancer stem cells after test compound is added (flow cytometry, Annexin V-FITC/PI, clinical specimen); type: cell-based, patient; conditions: Homo sapiens, 18 h
How it was run: (§2)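 Steps: density-gradient isolation of mononuclear cells from fresh or cryopreserved clinical samples; 18-hour compound exposure at 1×10^6 cells/mL; staining for stem-cell surface markers, then Annexin V-FITC and PI; flow cytometric apoptosis analysis.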

cancer cells = test: Survival rate of cancer cells after test compound is added (flow cytometry, Annexin V-FITC/PI, clinical specimen); type: cell-based, patient; conditions: Homo sapiens, 18 h, read-out: Survival rate (%) All cells (Stem cells and ordinary cells)
How it was run: as §2

[3] = read-out: Survival rate (%) All cells (Stem cells and ordinary cells)
[4] = read-out: Survival rate (%) Stem cells
[5] = Head and neck squamous cell carcinomas

C=C1C(=O)O[C@H]2[C@H]1CC[C@]1(C)O[C@@]13CC[C@@](C)(O)[C@H]23 [Compound 24]
Content of IL-1β in culture supernatant of synoviocyte (x ± s) [1]: 0.37 ± 0.051 ng/mL | Content of PGE2 in culture supernatant of synoviocyte (x ± s) [2]: 23.63 ± 1.35 ng/mL | viability at 10 µM (normal cells; [3]): 93% | viability at 10 µM (normal cells; [4]): 92% | viability at 20 µM (normal cells; [3]): 92% | viability at 20 µM (normal cells; [4]): 90% | viability at 10 µM (cancer stem cells; AML): 48% | viability at 20 µM (cancer stem cells; AML): 39% | viability at 10 µM (cancer stem cells; Brain glioma): 52% | viability at 20 µM (cancer stem cells; Brain glioma): 42% | viability at 10 µM (cancer stem cells; Brain tumor): 66% | viability at 20 µM (cancer stem cells; Brain tumor): 54% | viability at 10 µM (cancer stem cells; Breast cancer): 54% | viability at 20 µM (cancer stem cells; Breast cancer): 47% | viability at 10 µM (cancer stem cells; CLL): 48% | viability at 20 µM (cancer stem cells; CLL): 39% | viability at 10 µM (cancer stem cells; CML): 51% | viability at 20 µM (cancer stem cells; CML): 46% | viability at 10 µM (cancer stem cells; Children hepatoblastoma): 67% | viability at 20 µM (cancer stem cells; Children hepatoblastoma): 57% | viability at 10 µM (cancer stem cells; Colon adenocarcinoma): 58% | viability at 20 µM (cancer stem cells; Colon adenocarcinoma): 49% | viability at 10 µM (cancer stem cells; Colorectal cancer): 66% | viability at 20 µM (cancer stem cells; Colorectal cancer): 55% | viability at 10 µM (cancer stem cells; Gastric cancer): 51% | viability at 20 µM (cancer stem cells; Gastric cancer): 39% | viability at 10 µM (cancer stem cells; Gastrointestinal tumor): 56% | viability at 20 µM (cancer stem cells; Gastrointestinal tumor): 51% | viability at 10 µM (cancer stem cells; Glioma): 69% | viability at 20 µM (cancer stem cells; Glioma): 60% | viability at 10 µM (cancer stem cells; [5]): 64% | viability at 20 µM (cancer stem cells; [5]): 57% | viability at 10 µM (cancer stem cells; Laryngeal cancer): 65% | viability at 20 µM (cancer stem cells; Laryngeal cancer): 55% | viability at 10 µM (cancer stem cells; Liver cancer): 74% | viability at 20 µM (cancer stem cells; Liver cancer): 61% | viability at 10 µM (cancer stem cells; Lung adenocarcinoma): 68% | viability at 20 µM (cancer stem cells; Lung adenocarcinoma): 55% | viability at 10 µM (cancer stem cells; Lung cancer): 61% | viability at 20 µM (cancer stem cells; Lung cancer): 54% | viability at 10 µM (cancer stem cells; Malignant melanoma): 81% | viability at 20 µM (cancer stem cells; Malignant melanoma): 76% | viability at 10 µM (cancer stem cells; Nasopharynx cancer): 57% | viability at 20 µM (cancer stem cells; Nasopharynx cancer): 48% | viability at 10 µM (cancer stem cells; Ovarian cancer): 57% | viability at 20 µM (cancer stem cells; Ovarian cancer): 45% | viability at 10 µM (cancer stem cells; Pancreatic cancer): 55% | viability at 20 µM (cancer stem cells; Pancreatic cancer): 49% | viability at 10 µM (cancer stem cells; Prostate cancer): 61% | viability at 20 µM (cancer stem cells; Prostate cancer): 51% | viability at 10 µM (cancer stem cells; Retinoblastoma): 62% | viability at 20 µM (cancer stem cells; Retinoblastoma): 54% | viability at 10 µM (cancer stem cells; Skin cancer): 46% | viability at 20 µM (cancer stem cells; Skin cancer): 39% | viability at 10 µM (cancer cells; AML): 59% | viability at 20 µM (cancer cells; AML): 48% | viability at 10 µM (cancer cells; Brain glioma): 65% | viability at 20 µM (cancer cells; Brain glioma): 53% | viability at 10 µM (cancer cells; Brain tumor): 74% | viability at 20 µM (cancer cells; Brain tumor): 69% | viability at 10 µM (cancer cells; Breast cancer): 77% | viability at 20 µM (cancer cells; Breast cancer): 58% | viability at 10 µM (cancer cells; CLL): 67% | viability at 20 µM (cancer cells; CLL): 48% | viability at 10 µM (cancer cells; CML): 69% | viability at 20 µM (cancer cells; CML): 51% | viability at 10 µM (cancer cells; Children hepatoblastoma): 75% | viability at 20 µM (cancer cells; Children hepatoblastoma): 68% | viability at 10 µM (cancer cells; Colon adenocarcinoma): 66% | viability at 20 µM (cancer cells; Colon adenocarcinoma): 57% | viability at 10 µM (cancer cells; Colorectal cancer): 78% | viability at 20 µM (cancer cells; Colorectal cancer): 67% | viability at 10 µM (cancer cells; Gastric cancer): 66% | viability at 20 µM (cancer cells; Gastric cancer): 48% | viability at 10 µM (cancer cells; Gastrointestinal tumor): 72% | viability at 20 µM (cancer cells; Gastrointestinal tumor): 62% | viability at 10 µM (cancer cells; Glioma): 78% | viability at 20 µM (cancer cells; Glioma): 74% | viability at 10 µM (cancer cells; [5]): 76% | viability at 20 µM (cancer cells; [5]): 68% | viability at 10 µM (cancer cells; Laryngeal cancer): 75% | viability at 20 µM (cancer cells; Laryngeal cancer): 66% | viability at 10 µM (cancer cells; Liver cancer): 82% | viability at 20 µM (cancer cells; Liver cancer): 72% | viability at 10 µM (cancer cells; Lung adenocarcinoma): 78% | viability at 20 µM (cancer cells; Lung adenocarcinoma): 64% | viability at 10 µM (cancer cells; Lung cancer): 72% | viability at 20 µM (cancer cells; Lung cancer): 66% | viability at 10 µM (cancer cells; Malignant melanoma): 88% | viability at 20 µM (cancer cells; Malignant melanoma): 86% | viability at 10 µM (cancer cells; Nasopharynx cancer): 64% | viability at 20 µM (cancer cells; Nasopharynx cancer): 59% | viability at 10 µM (cancer cells; Ovarian cancer): 68% | viability at 20 µM (cancer cells; Ovarian cancer): 61% | viability at 10 µM (cancer cells; Pancreatic cancer): 68% | viability at 20 µM (cancer cells; Pancreatic cancer): 62% | viability at 10 µM (cancer cells; Prostate cancer): 75% | viability at 20 µM (cancer cells; Prostate cancer): 62% | viability at 10 µM (cancer cells; Retinoblastoma): 82% | viability at 20 µM (cancer cells; Retinoblastoma): 69% | viability at 10 µM (cancer cells; Skin cancer): 62% | viability at 20 µM (cancer cells; Skin cancer): 47%
